Measured values reported in US10071957B2, “N-substituted benzamides and methods of use thereof” (GENENTECH, INC., priority 2012, dated 2018).

How the values were obtained:
[1] = target: T1, hNaV1.7 (Homo sapiens (Human), UniProt Q15858); assay: Patch voltage clamp electrophysiology, inactivated state block of NaV1.7 in HEK-293 cells; format: cell-based; details: HEK cells with β1 subunit, read-out: hNaV 1.7 IC50
Method: (§1) Patch voltage clamp electrophysiology allows for the direct measurement and quantification of block of voltage-gated sodium channels (NaV's), and allows the determination of the time- and voltage-dependence of block which has been interpreted as differential binding to the resting, open, and inactivated states of the sodium channel (Hille, B., Journal of General Physiology (1977), 69: 497-515).
(§2) The following patch voltage clamp electrophysiology studies were performed on representative compounds of the invention using human embryonic kidney cells (HEK), permanently transfected with an expression vector containing the full-length cDNA coding for the desired human sodium channel α-subunit, grown in culture media containing 10% FBS, 1% PSG, and 0.5 mg/mL G418 at 37° C. with 5% CO2. […] NaV1.7 and NaV1.5 cDNAs (NM_002977 and AC137587; SCN5A, respectively) were stably expressed in HEK-293 cells. The β1 subunit was coexpressed in both the NaV1.7 and NaV1.5 cell lines.
(§3) Sodium currents were measured using the patch clamp technique in the whole-cell configuration using either a PatchXpress automated voltage clamp or manually using an Axopatch 200B (Axon Instruments) or Model 2400 (A-M systems) amplifier. The manual voltage clamp protocol was as follows:
(§4) The pipette was filled with a solution comprised of: 5 mM NaCl, 10 mM CsCl, 120 mM CsF, 0.1 mM CaCl2, 2 mM MgCl2, 10 mM HEPES, 10 mM EGTA; and adjusted to pH 7.2 with CsOH. The external solution had the following composition: 140 mM NaCl, 5 mM KCl, 2 mM CaCl2, 1 mM MgCl2, 10 mM HEPES; and adjusted to pH 7.4 with NaOH. In some studies, the external sodium was reduced by equimolar replacement with choline. Osmolarity in the CsF internal and NaCl external solutions was adjusted to 300 mOsm/kg and 310 mOsm/kg with glucose, respectively. All recordings were performed at ambient temperature in a bath chamber with a volume of 150 μL. Control sodium currents were measured in 0.5% DMSO. Controls and representative compounds of the invention were applied to the recording chamber through a 4-pinch or 8-pinch valve bath perfusion system manufactured by ALA Scientific Instruments.
(§5) Currents were recorded at 40 kHz sampling frequency, filtered at […], and stored using a Digidata-1322A analogue/digital interface with the pClamp software (Axon Instruments). Series resistance compensation was applied (60-80%). […] All statistics in this study are given as mean±SD.
The membrane potential was maintained at a voltage where inactivation of the channel is complete (which was −60 mV for both NaV1.7 and NaV1.5). […] The percent decrease in sodium current following wash-on of compound was taken as the percent block of sodium channels.

[2] = target: hNaV1.5 (Homo sapiens (Human), UniProt Q14524); assay: Patch voltage clamp electrophysiology, inactivated state block of NaV1.5 in HEK-293 cells; format: cell-based; details: HEK cells with β1 subunit, read-out: hNaV 1.5 IC50
hNaV1.5, sequence (Q14524 whole entry): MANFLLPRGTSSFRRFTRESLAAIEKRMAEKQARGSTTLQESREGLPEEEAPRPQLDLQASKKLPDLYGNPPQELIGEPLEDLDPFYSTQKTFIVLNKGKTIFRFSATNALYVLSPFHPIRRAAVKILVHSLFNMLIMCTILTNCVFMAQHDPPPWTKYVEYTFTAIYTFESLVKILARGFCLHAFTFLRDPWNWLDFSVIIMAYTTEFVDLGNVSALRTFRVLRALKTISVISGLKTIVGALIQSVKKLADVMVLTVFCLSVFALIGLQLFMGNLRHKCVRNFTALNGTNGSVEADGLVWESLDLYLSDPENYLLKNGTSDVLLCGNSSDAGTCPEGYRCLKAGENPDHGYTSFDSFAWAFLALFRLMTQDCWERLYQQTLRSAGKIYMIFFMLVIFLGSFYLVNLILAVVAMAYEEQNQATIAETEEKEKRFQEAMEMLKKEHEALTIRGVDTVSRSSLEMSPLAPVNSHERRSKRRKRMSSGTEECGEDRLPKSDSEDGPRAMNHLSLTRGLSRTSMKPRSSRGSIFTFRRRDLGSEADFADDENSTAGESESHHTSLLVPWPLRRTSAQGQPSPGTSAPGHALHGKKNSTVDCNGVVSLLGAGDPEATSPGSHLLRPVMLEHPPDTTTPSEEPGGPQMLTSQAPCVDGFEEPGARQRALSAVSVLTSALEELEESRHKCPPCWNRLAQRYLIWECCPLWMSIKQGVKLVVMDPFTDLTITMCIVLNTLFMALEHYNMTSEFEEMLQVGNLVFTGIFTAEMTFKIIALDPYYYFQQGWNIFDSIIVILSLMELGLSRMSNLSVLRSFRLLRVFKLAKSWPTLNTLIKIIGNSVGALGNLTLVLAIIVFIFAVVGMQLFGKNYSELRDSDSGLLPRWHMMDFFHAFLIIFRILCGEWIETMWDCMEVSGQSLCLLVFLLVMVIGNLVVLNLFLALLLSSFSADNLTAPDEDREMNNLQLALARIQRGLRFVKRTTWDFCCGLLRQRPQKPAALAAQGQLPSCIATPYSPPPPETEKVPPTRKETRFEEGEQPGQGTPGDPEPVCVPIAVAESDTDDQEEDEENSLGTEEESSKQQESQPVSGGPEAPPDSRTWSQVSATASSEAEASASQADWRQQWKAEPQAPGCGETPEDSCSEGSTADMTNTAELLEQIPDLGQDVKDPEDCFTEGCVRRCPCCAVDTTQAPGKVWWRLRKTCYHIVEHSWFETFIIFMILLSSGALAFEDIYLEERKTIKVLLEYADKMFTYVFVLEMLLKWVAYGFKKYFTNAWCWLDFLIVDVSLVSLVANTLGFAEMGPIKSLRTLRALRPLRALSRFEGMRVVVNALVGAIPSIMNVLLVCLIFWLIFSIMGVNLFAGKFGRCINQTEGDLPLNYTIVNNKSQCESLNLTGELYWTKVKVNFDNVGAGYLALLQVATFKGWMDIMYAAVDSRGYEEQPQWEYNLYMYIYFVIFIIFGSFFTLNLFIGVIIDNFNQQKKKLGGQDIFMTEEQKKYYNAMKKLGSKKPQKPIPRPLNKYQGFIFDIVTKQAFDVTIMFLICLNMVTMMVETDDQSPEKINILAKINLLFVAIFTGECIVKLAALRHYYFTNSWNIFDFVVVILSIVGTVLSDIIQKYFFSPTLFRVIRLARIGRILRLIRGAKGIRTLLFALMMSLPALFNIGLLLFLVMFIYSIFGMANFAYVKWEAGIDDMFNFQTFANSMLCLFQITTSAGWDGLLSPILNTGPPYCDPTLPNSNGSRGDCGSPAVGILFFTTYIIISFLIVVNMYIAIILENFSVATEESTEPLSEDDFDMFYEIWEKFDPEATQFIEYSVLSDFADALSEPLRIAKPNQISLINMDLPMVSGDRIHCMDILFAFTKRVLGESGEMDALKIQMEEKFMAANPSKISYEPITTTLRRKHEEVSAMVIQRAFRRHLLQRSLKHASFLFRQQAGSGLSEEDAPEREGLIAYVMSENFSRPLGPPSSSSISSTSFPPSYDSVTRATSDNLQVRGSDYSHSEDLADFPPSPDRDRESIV
Method: as §1, §2, §3
as §4, with “Borosilicate glass micropipettes were fire-polished to a tip diameter yielding a resistance of 2-4 Mohms in the working solutions. The pipette” for “The pipette”
as §5
The membrane potential was maintained at a voltage where inactivation of the channel is complete (which was −60 mV for both NaV1.7 and NaV1.5). The voltage is then stepped back to a very negative (Vhold=[…]) voltage for 20 ms and then a test pulse is applied to quantify the compound block. The 20 ms brief repolarization was long enough for compound-free channels to completely recover from fast inactivation, but the compound-bound channels recovered more slowly such that negligible recovery could occur during this interval. The percent decrease in sodium current following wash-on of compound was taken as the percent block of sodium channels.

[3] = target: T1, hNaV1.7; assay: Competitive binding of tritiated compound to membranes from cells expressing hNav1.7 and the β1 subunit; details: 100 pM [3H]compound, 18 h, room temperature; read-out: NaV1.7 395 Membrane Binding IC50
Method in brief: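 Membranes from cells expressing hNav1.7 with β1 subunit incubated 18 h at room temperature with 100 pM tritiated reference compound and test compound in 100 mM NaCl, 20 mM Tris HCl, pH 7.4. Nonspecific binding defined with 1 μM unlabelled compound; bound radioactivity counted after GF/C filtration. IC50 from 4-parameter logistic fit.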

T1 sequence (Q15858 whole entry, looked up): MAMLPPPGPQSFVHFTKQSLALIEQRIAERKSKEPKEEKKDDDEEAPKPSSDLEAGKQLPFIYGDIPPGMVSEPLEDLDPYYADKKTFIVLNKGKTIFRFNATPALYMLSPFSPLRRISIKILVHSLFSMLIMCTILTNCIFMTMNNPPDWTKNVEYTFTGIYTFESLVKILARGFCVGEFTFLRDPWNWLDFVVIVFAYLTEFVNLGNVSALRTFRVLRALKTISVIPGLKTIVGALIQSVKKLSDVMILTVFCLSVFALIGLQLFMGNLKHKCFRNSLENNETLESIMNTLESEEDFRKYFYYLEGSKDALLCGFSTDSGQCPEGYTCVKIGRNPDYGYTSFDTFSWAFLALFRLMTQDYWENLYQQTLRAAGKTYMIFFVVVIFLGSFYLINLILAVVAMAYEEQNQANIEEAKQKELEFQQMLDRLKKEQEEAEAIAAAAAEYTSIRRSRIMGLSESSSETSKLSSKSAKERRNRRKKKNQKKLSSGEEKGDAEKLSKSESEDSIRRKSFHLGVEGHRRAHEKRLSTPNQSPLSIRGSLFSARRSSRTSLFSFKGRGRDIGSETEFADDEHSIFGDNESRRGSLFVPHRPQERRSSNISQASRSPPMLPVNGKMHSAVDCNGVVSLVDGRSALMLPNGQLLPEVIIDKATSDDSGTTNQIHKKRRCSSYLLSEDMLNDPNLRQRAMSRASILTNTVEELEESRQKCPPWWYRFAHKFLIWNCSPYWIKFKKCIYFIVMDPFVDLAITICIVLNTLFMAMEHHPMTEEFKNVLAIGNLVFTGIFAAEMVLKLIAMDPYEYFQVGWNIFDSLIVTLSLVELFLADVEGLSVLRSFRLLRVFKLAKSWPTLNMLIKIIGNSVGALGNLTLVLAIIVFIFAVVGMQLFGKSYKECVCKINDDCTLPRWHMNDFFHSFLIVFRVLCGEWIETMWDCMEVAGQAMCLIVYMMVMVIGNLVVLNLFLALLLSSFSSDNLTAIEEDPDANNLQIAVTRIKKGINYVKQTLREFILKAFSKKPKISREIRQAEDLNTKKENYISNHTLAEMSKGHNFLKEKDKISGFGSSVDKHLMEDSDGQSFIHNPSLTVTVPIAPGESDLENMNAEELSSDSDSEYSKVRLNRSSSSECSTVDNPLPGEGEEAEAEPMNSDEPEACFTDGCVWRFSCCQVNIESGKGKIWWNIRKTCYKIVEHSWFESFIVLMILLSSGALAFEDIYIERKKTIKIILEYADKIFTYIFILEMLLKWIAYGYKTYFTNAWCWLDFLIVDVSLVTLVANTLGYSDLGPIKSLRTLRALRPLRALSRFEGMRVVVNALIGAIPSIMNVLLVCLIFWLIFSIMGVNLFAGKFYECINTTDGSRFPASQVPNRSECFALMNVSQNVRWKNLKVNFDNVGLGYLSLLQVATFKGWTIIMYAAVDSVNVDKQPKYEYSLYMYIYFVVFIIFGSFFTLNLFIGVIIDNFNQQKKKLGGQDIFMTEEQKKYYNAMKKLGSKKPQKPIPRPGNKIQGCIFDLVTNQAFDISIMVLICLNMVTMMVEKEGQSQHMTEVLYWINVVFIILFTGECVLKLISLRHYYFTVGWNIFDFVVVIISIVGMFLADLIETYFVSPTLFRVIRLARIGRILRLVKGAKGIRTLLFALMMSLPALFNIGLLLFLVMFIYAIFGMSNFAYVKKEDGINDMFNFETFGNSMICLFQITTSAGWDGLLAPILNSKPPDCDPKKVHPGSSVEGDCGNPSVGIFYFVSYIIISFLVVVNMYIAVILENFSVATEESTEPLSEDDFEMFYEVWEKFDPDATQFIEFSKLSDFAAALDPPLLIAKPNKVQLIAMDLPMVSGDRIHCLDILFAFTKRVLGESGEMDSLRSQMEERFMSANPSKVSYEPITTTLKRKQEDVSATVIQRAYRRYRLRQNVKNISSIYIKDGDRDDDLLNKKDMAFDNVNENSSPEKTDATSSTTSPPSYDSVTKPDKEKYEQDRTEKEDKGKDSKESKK
T1 sequence (Q07699 whole entry partner, looked up): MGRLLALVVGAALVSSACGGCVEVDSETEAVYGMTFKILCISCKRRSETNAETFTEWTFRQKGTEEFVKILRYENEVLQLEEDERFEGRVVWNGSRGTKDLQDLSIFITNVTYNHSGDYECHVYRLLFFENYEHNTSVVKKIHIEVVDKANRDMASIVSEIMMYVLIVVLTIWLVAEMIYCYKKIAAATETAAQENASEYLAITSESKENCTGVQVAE

IC50 [1] [nM]	IC50 [3] [nM]	Compound	IC50 [2] [nM]
2.1	6	CC(C)Oc1ncc(Oc2cc(F)c(C(=O)NS(=O)(=O)N3CCC3)cc2C2CC2)cc1Cl [Preparation 87]	1200
6.7	5	C=Cc1cc(C(=O)NS(=O)(=O)N2CCC2)c(F)cc1Oc1cnc(OC(C)C)c(Cl)c1 [Preparation 91]	2600
22	11	COc1ncccc1-c1cc(C(=O)NS(=O)(=O)N2CCC2)ccc1Oc1cnc(OC(C)C)c(Cl)c1 [Preparation 86]	> 10000
8.4	25	CC(C)Oc1ncc(Oc2ccc(C(=O)NS(=O)(=O)N3CCC3)cc2C2CC2)cc1Cl [Preparation 84]	3500
190	1130	NS(=O)(=O)NC(=O)c1cc(Cl)c(Oc2ccc(Cl)c(C(F)(F)F)c2)cc1F [Preparation 7, 5-chloro-4-(4-chloro-3-(trifluoromethyl)phenoxy)-2-fluoro-N-sulfamoyl-benzamide]	–

Compound	IC50 [1] [nM]	IC50 [3] [nM]	IC50 [2] [nM]
CNS(=O)(=O)NC(=O)c1cc(Cl)c(Oc2cnc(OCC(C)C)c(Cl)c2)cc1F [Preparation 6, 5-chloro-4-((5-chloro-6-isobutoxypyridin-3-yl)oxy)-2-fluoro-N-(N-methylsulfamoyl) benzamide]	6	8.5	7180
CC(C)COc1ncc(Oc2cc(F)c(C(=O)NS(=O)(=O)N(C)C)cc2Cl)cc1Cl [Preparation 3, 5-chloro-4-((5-chloro-6-isobutoxypyridin-3-yl)oxy)-N-(N,N-dimethylsulfamoyl)-2-fluorobenzamide]	11	24.8	2180
